Assays:
PIK3CG (human) = PIK3CG (human) (UniProt P48736); assay: Enzyme Assay
PIK3CD (Human) [1] = target: PIK3CD (Human) (UniProt O00329); assay: Enzyme Assay
PIK3CB (Human) = PIK3CB (Human) (UniProt P42338); assay: Enzyme Assay
PIK3CD (Human) [2] = target: PIK3CD (Human) (UniProt O00329); assay: Cell-Based Assay; details: raji

Sequence of PIK3CB (Human) (P42338 whole entry, looked up): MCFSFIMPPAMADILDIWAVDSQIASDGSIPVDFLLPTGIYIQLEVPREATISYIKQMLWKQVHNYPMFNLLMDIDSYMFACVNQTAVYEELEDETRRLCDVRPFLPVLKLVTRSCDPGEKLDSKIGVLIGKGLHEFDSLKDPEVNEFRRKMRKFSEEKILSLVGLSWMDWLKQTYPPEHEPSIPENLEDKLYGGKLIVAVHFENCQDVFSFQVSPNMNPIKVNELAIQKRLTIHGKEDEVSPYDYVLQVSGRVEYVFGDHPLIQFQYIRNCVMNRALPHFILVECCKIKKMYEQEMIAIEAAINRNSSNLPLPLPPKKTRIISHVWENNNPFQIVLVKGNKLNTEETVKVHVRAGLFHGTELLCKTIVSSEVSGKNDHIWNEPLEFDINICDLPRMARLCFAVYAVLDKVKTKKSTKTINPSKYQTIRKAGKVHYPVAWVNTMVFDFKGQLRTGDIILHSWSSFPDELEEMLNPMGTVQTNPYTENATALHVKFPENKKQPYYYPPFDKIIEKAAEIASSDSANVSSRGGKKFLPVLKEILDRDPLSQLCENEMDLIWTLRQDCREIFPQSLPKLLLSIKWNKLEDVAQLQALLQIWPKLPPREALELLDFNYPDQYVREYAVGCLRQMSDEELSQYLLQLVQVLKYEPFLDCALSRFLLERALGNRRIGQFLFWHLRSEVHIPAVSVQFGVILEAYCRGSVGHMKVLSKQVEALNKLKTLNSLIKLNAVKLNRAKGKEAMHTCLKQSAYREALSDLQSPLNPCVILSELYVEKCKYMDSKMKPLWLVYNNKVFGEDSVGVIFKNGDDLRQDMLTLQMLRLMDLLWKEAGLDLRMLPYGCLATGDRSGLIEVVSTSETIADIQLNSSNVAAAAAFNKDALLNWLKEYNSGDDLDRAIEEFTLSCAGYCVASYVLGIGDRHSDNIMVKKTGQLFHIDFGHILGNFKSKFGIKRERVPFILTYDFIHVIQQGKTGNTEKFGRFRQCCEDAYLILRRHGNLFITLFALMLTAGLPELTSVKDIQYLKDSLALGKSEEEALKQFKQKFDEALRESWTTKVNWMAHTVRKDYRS
Sequence of PIK3CD (Human) (O00329 whole entry, looked up): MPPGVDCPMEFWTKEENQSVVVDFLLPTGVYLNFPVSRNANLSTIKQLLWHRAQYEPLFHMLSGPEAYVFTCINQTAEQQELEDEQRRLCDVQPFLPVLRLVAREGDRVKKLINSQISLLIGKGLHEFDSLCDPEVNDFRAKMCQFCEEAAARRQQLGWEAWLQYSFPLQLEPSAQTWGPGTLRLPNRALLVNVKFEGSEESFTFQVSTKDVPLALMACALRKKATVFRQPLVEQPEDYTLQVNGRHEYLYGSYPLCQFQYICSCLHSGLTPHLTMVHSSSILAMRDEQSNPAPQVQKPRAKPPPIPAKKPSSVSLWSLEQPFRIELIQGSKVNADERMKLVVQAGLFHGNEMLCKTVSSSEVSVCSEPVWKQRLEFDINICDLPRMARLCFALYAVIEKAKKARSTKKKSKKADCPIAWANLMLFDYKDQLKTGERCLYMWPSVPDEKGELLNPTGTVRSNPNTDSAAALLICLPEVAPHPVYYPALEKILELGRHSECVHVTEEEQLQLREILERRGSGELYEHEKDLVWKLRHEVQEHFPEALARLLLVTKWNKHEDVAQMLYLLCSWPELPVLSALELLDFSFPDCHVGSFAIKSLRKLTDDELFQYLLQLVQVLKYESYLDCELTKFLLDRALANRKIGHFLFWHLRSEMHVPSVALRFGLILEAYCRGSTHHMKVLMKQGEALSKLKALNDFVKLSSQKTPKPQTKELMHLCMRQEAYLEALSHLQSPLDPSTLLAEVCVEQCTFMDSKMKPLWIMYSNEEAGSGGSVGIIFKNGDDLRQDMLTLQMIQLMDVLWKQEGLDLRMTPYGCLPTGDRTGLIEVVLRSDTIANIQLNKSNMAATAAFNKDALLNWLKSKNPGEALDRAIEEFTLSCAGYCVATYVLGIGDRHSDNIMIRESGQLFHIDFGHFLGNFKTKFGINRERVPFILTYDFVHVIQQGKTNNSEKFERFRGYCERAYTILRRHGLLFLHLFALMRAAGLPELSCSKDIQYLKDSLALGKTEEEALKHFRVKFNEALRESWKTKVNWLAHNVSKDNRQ
Sequence of PIK3CG (human) (P48736 whole entry, looked up): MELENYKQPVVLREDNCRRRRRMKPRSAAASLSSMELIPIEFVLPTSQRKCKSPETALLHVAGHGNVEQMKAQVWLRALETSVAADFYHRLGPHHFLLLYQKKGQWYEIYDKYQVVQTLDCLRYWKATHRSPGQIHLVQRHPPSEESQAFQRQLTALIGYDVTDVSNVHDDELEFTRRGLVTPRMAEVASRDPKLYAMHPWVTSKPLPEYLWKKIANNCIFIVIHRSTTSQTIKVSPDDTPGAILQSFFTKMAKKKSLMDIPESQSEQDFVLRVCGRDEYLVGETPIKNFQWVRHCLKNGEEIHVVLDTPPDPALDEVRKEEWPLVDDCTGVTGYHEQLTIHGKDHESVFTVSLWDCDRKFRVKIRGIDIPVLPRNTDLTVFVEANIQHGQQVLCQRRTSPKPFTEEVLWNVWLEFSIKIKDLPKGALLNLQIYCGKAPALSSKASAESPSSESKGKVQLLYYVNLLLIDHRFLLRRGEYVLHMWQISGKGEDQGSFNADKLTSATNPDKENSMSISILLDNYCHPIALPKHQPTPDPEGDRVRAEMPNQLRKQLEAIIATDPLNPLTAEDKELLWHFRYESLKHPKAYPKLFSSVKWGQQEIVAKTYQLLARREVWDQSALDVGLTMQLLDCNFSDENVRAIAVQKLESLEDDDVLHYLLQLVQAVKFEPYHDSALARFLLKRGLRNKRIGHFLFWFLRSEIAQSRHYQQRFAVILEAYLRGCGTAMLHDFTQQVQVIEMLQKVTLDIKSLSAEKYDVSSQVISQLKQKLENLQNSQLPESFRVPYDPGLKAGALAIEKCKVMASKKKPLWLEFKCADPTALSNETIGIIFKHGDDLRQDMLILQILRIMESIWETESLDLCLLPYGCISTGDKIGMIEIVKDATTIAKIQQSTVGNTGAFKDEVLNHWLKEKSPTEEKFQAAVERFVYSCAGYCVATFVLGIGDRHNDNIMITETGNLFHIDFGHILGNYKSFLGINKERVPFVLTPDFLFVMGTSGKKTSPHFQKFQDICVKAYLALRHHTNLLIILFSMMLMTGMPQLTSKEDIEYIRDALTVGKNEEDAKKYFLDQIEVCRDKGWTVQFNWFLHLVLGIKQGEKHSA

SMILES	IC50 (PIK3CG (human))	IC50 (PIK3CD (Human) [1])	IC50 (PIK3CB (Human))	IC50 (PIK3CD (Human) [2])
Cc1cccc(-n2c([C@H](C)NC(=O)c3c(N)nn4cccnc34)cc3cccc(C#Cc4cnn(C)c4)c3c2=O)c1	0.1 to 0.5 µM	5 to 10 µM	5 to 10 µM	–
C[C@H](NC(=O)c1c(N)nn2cccnc12)c1cc2cccc(C#Cc3cnn(C)c3)c2c(=O)n1C1CCCCC1	1 to 5 µM	5 to 10 µM	5 to 10 µM	–
C[C@H](NC(=O)c1c(N)nn2cccnc12)c1cc2cccc(C#Cc3cnn(C)c3)c2c(=O)n1-c1cccc(F)c1	0.001 to 0.1 µM	5 to 10 µM	5 to 10 µM	–
C[C@H](NC(=O)c1c(N)nn2cccnc12)c1cc2cccc(C#Cc3cnn(C)c3)c2c(=O)n1-c1ccc(F)c(F)c1	0.1 to 0.5 µM	5 to 10 µM	5 to 10 µM	–
C#Cc1cccc2nc([C@H](C)NC(=O)c3nccnc3N)n(-c3ccccc3)c(=O)c12	0.001 to 0.1 µM	0.001 to 0.5 µM	0.001 to 0.5 µM	–
C[C@H](NC(=O)c1c(N)nn2cccnc12)c1cc2cccc(C=Cc3ccccc3)c2c(=O)n1-c1ccccc1	> 5 µM	5 to 10 µM	5 to 10 µM	–
CC[C@H](NC(=O)c1c(N)nn2cccnc12)c1cc2cccc(C#Cc3cnn(C)c3)c2c(=O)n1-c1ccccc1	0.001 to 0.1 µM	5 to 10 µM	5 to 10 µM	–
C[C@H](NC(=O)c1c(N)nn2cccnc12)c1cc2cccc(C#Cc3cnn(C)c3)c2c(=O)n1-c1ccc(F)cc1	0.001 to 0.1 µM	5 to 10 µM	5 to 10 µM	–
C[C@H](NC(=O)c1c(N)nn2cccnc12)c1cc2cccc(C#Cc3cnn(C)c3)c2c(=O)n1C	0.1 to 0.5 µM	5 to 10 µM	0.5 to 1 µM	–
Cc1ccccc1-n1c([C@H](C)NC(=O)c2c(N)nn3cccnc23)cc2cccc(C#Cc3cnn(C)c3)c2c1=O	0.001 to 0.1 µM	5 to 10 µM	5 to 10 µM	–
CNS(=O)(=O)CCn1c([C@H](C)NC(=O)c2c(N)nn3cccnc23)cc2cccc(C#Cc3cnn(C)c3)c2c1=O	0.001 to 0.1 µM	5 to 10 µM	1 to 5 µM	–

Next, values leading:

IC50 (PIK3CG (human))	IC50 (PIK3CD (Human) [1])	IC50 (PIK3CB (Human))	IC50 (PIK3CD (Human) [2])	SMILES
0.5 to 1 µM	5 to 10 µM	5 to 10 µM	–	C[C@H](NC(=O)c1c(N)nn2cccnc12)c1cc2cccc(C#CC3CCN(C)CC3)c2c(=O)n1-c1ccccc1
1 to 5 µM	5 to 10 µM	5 to 10 µM	–	Cn1cc(C#Cc2cccc3cc(CNC(=O)c4c(N)nn5cccnc45)n(-c4ccccc4)c(=O)c23)cn1
–	5 to 10 µM	1 to 5 µM	0.1 to 0.5 µM	C[C@H](NC(=O)c1c(N)nn2cccnc12)c1cc2cccc(C#Cc3cnn(C)c3)c2c(=O)n1C1CC1
0.001 to 0.1 µM	5 to 10 µM	1 to 5 µM	–	C[C@H](NC(=O)c1c(N)nn2cccnc12)c1cc2cccc(C#Cc3cnn(C)c3)c2c(=O)n1CCS(=O)(=O)N(C)C
0.1 to 0.5 µM	5 to 10 µM	5 to 10 µM	–	Cc1ccc(-n2c([C@H](C)NC(=O)c3c(N)nn4cccnc34)cc3cccc(C#Cc4cnn(C)c4)c3c2=O)cc1
0.1 to 0.5 µM	5 to 10 µM	5 to 10 µM	–	Cc1ccnc2c(C(=O)N[C@@H](C)c3cc4cccc(C#Cc5cnn(C)c5)c4c(=O)n3-c3ccccc3)cnn12
0.1 to 0.5 µM	5 to 10 µM	5 to 10 µM	–	Cc1cc(C)n2nc(N)c(C(=O)N[C@@H](C)c3cc4cccc(C#Cc5cnn(C)c5)c4c(=O)n3-c3ccccc3)c2n1
0.001 to 0.1 µM	5 to 10 µM	1 to 5 µM	–	Cc1ccn2nc(N)c(C(=O)N[C@@H](C)c3cc4cccc(C#Cc5cnn(C)c5)c4c(=O)n3-c3ccccc3)c2n1
0.5 to 1 µM	5 to 10 µM	5 to 10 µM	–	CC(C)n1c([C@H](C)NC(=O)c2c(N)nn3cccnc23)cc2cccc(C#Cc3cnn(C)c3)c2c1=O
0.1 to 0.5 µM	1 to 5 µM	1 to 5 µM	–	Cc1nnc(C#Cc2cccc3cc([C@H](C)NC(=O)c4c(N)nn5cccnc45)n(-c4ccccc4)c(=O)c23)s1
0.001 to 0.1 µM	1 to 5 µM	1 to 5 µM	–	C[C@H](NC(=O)c1c(N)nn2cccnc12)c1cc2cccc(N)c2c(=O)n1-c1ccccc1

Reference: the Kinase Knowledgebase extract (Sharma et al. 2016)
